According to patent US20200199102A1, “COMPOUNDS THAT PARTICIPATE IN COOPERATIVE BINDING AND USES THEREOF” (Revolution Medicines, Inc., priority 2017, published 2020):
Where a SMILES comes first, the peptide text is derived from it. [ ]: non-standard residue; d: D form. MeBmt = C/C=C/C[C@@H](C)[C@@H](O)[C@H](NC)C(=O)O; NMeF = CN[C@@H](Cc1ccccc1)C(=O)O; NMeI = CC[C@H](C)[C@H](NC)C(=O)O; NMeT = CN[C@H](C(=O)O)[C@@H](C)O; NMeL = CN[C@@H](CC(C)C)C(=O)O; Tle = CC(C)(C)[C@H](N)C(=O)O; NMeNva = CCC[C@H](NC)C(=O)O; NMeV = CN[C@H](C(=O)O)C(C)C; NMeA = CN[C@@H](C)C(=O)O; Abu = CC[C@H](N)C(=O)O; Sar = CNCC(=O)O

Target: T1, Cyclophilin A (Homo sapiens, UniProt P62937)
T1 construct: made in house
T1 sequence (P62937 whole entry, species assumed): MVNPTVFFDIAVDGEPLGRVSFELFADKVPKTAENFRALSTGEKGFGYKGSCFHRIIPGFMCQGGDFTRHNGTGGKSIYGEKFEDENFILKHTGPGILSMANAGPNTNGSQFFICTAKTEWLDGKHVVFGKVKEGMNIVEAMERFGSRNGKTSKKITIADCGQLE
Assay: AlphaLISA inhibition of binding of biotinylated Cyclosporin A to FLAG tagged Cyclophilin A
Conditions: for % signal: AlphaLISA signal; for % signal / % inhibition of CsA binding to Cyclophilin A: test concentration not given; for IC50: read-out: IC50 value of CsA binding to Cyclophilin A
Excerpt: The binding of compounds of the invention to Cyclophilin A can be determined using the following protocol.
This protocol utilizes Perkin Elmers AlphaLISA technology platform to detect cyclosporine analogues by measuring the inhibition of binding of biotinylated Cyclosporin A to FLAG tagged Cyclophilin A.
10×TBST Buffer (Boston BioProducts IBB-181), Biotinylated Cyclosporin A (in-house), FLAG tagged Cyclophilin A (in-house); anti-FLAG Donor beads (PerkinElmer AS103) and Streptavidin Acceptor beads (PerkinElmer AL125); Compounds in DMSO (in-house), Cyclosporin A (LC Labs Cat #C-6000).
Add 20 uL of 6 nM Biotinylated CsA working stock to each well of the 96-well plate. Add 1 uL of test compound (100% DMSO) to each well of the plate using the Janus MTD head and P20 tips (except control wells). Add 1 uL of DMSO to negative control wells and 1 uL of 500 uM Cyclosporin A solution to positive control wells. In the dark, add 20 uL of combined Donor/Acceptor beads to each well. Incubate in the dark for 30 minutes at room temperature. In the dark, add 10 uL of 25 nM Flag tagged CypA working stock to each well. Incubate in the dark for 60 minutes at room temperature. Protect plate from light until reading on Biotek Synergy2 Plate Reader; Alphalisa 96-well protocol (680 excitation/615 emission).

Structure (SMILES)	% signal [%]	IC50 [nM]	% inhibition of CsA binding to Cyclophilin A [%]
C/C=C/C[C@@H](C)[C@@H](O)[C@H]1C(=O)N[C@@H](CC)C(=O)N(C)CC(=O)N(C)[C@@H](C)C(=O)N[C@@H](C(C)C)C(=O)N(C)[C@@H](CC(C)C)C(=O)N[C@@H](CC)C(=O)N[C@H](C)C(=O)N(C)[C@@H](CC(C)C)C(=O)N(C)[C@@H](CC(C)C)C(=O)N(C)[C@@H](C(C)C)C(=O)N1C [Compound C94] (cyclo([Abu][Sar][NMeA]V[NMeL][Abu][dA][NMeL][NMeL][NMeV][MeBmt]))	3.71	< 2000	96.29
C/C=C/C[C@@H](C)[C@@H](O)[C@H]1C(=O)N[C@@H](CC)C(=O)N(C)CC(=O)N(C)[C@@H]([C@@H](C)O)C(=O)N[C@@H](C(C)C)C(=O)N(C)[C@@H](CC(C)C)C(=O)N[C@@H](CC)C(=O)N[C@H](C)C(=O)N(C)[C@@H](CC(C)C)C(=O)N(C)[C@@H](CC(C)C)C(=O)N(C)[C@@H](C(C)C)C(=O)N1C [Compound C99] (cyclo([Abu][Sar][NMeT]V[NMeL][Abu][dA][NMeL][NMeL][NMeV][MeBmt]))	2.59	< 2000	97.41
C/C=C/C[C@@H](C)[C@@H](O)[C@H]1C(=O)N[C@@H](CC)C(=O)N(C)CC(=O)N(C)[C@@H](CC(C)C)C(=O)N[C@@H](CC(C)C)C(=O)N(C)[C@@H](C)C(=O)N[C@@H](C)C(=O)N[C@H](C)C(=O)N(C)[C@@H](CC(C)C)C(=O)N(C)[C@@H](CC(C)C)C(=O)N(C)[C@@H](C(C)C)C(=O)N1C [Compound C14] (cyclo([MeBmt][Abu][Sar][NMeL]L[NMeA]A[dA][NMeL][NMeL][NMeV]))	9.36	< 2000	
C/C=C/C[C@@H](C)[C@@H](O)[C@H]1C(=O)N[C@@H](CC)C(=O)N(C)CC(=O)N(C)CC(=O)N[C@@H](CC(C)C)C(=O)N(C)[C@@H](C)C(=O)N[C@@H](C)C(=O)N[C@H](C)C(=O)N(C)[C@@H](CC(C)C)C(=O)N(C)[C@@H](CC(C)C)C(=O)N(C)[C@@H](C(C)C)C(=O)N1C [Compound C13] (cyclo([MeBmt][Abu][Sar][Sar]L[NMeA]A[dA][NMeL][NMeL][NMeV]))	2.70	< 2000	97.30
C/C=C/C[C@@H](C)[C@@H](O)[C@H]1C(=O)N[C@@H](CC)C(=O)N(C)CC(=O)N(C)[C@@H](CCC)C(=O)N[C@@H](C(C)(C)C)C(=O)N(C)[C@@H](C)C(=O)N[C@@H](CC(C)C)C(=O)N[C@H](C)C(=O)N(C)[C@@H](CC(C)C)C(=O)N(C)[C@@H](CC(C)C)C(=O)N(C)[C@@H](C(C)C)C(=O)N1C [Compound C78] (cyclo([MeBmt][Abu][Sar][NMeNva][Tle][NMeA]L[dA][NMeL][NMeL][NMeV]))	1.42	< 2000	98.58
C/C=C/C[C@@H](C)[C@@H](O)[C@H]1C(=O)N[C@@H](CC)C(=O)N(C)CC(=O)N(C)[C@@H](CC(C)C)C(=O)N[C@@H](C(C)C)C(=O)N(C)[C@@H](CC(C)C)C(=O)N[C@@H](CC(C)C)C(=O)N[C@H](C)C(=O)N(C)[C@@H](CC(C)C)C(=O)N(C)[C@@H](CC(C)C)C(=O)N(C)[C@@H](C(C)C)C(=O)N1C [Compound C50]	6.06	< 2000	93.94
C/C=C/C[C@@H](C)[C@@H](O)[C@H]1C(=O)N[C@@H](CC)C(=O)N(C)CC(=O)N(C)[C@@H](CC(C)C)C(=O)N[C@@H](C)C(=O)N(C)CC(=O)N[C@@H](C)C(=O)N[C@H](C)C(=O)N(C)[C@@H](CC(C)C)C(=O)N(C)[C@@H](CC(C)C)C(=O)N(C)[C@@H](C(C)C)C(=O)N1C [Compound C22] (cyclo([MeBmt][Abu][Sar][NMeL]A[Sar]A[dA][NMeL][NMeL][NMeV]))	5.97	< 2000	94.03
C/C=C/C[C@@H](C)[C@@H](O)[C@H]1C(=O)N[C@@H](CC)C(=O)N(C)CC(=O)N(C)[C@@H]([C@@H](C)CC)C(=O)N[C@@H](CC(C)C)C(=O)N(C)[C@@H](C)C(=O)N[C@@H](C)C(=O)N[C@H](C)C(=O)N(C)[C@@H](CC(C)C)C(=O)N(C)[C@@H](CC(C)C)C(=O)N(C)[C@@H](C(C)C)C(=O)N1C [Compound C9] (cyclo([MeBmt][Abu][Sar][NMeI]L[NMeA]A[dA][NMeL][NMeL][NMeV]))	0.11	< 2000	99.89
C/C=C/C[C@@H](C)[C@@H](O)[C@H]1C(=O)N[C@@H](CC)C(=O)N(C)CC(=O)N(C)CC(=O)N[C@@H](C(C)C)C(=O)N(C)CC(=O)N[C@@H](C)C(=O)N[C@H](C)C(=O)N(C)[C@@H](CC(C)C)C(=O)N(C)[C@@H](CC(C)C)C(=O)N(C)[C@@H](C(C)C)C(=O)N1C [Compound C28] (cyclo([MeBmt][Abu][Sar][Sar]V[Sar]A[dA][NMeL][NMeL][NMeV]))	1.06	< 2000	98.94
C/C=C/C[C@@H](C)[C@@H](O)[C@H]1C(=O)N[C@@H](CC)C(=O)N(C)CC(=O)N(C)[C@@H]([C@@H](C)O)C(=O)N[C@@H](C(C)(C)C)C(=O)N(C)[C@@H](C)C(=O)N[C@@H](CC(C)C)C(=O)N[C@H](C)C(=O)N(C)[C@@H](CC(C)C)C(=O)N(C)[C@@H](CC(C)C)C(=O)N(C)[C@@H](C(C)C)C(=O)N1C [Compound C75] (cyclo([MeBmt][Abu][Sar][NMeT][Tle][NMeA]L[dA][NMeL][NMeL][NMeV]))	3.88	< 2000	
C/C=C/C[C@@H](C)[C@@H](O)[C@H]1C(=O)N[C@@H](CC)C(=O)N(C)CC(=O)N(C)[C@@H](CCCC)C(=O)N[C@@H](C(C)C)C(=O)N(C)[C@@H](CC(C)C)C(=O)N[C@@H](CC)C(=O)N[C@H](C)C(=O)N(C)[C@@H](CC(C)C)C(=O)N(C)[C@@H](CC(C)C)C(=O)N(C)[C@@H](C(C)C)C(=O)N1C [Compound C104]	0.99	< 2000	99.01
C/C=C/C[C@@H](C)[C@@H](O)[C@H]1C(=O)N[C@@H](CC)C(=O)N(C)CC(=O)N(C)[C@@H](Cc2ccccc2)C(=O)N[C@@H](C(C)C)C(=O)N(C)[C@@H](CC(C)C)C(=O)N[C@@H](CC)C(=O)N[C@H](C)C(=O)N(C)[C@@H](CC(C)C)C(=O)N(C)[C@@H](CC(C)C)C(=O)N(C)[C@@H](C(C)C)C(=O)N1C [Compound C96] (cyclo([Abu][Sar][NMeF]V[NMeL][Abu][dA][NMeL][NMeL][NMeV][MeBmt]))	5.00	< 2000	95.00
C/C=C/C[C@@H](C)[C@@H](O)[C@H]1C(=O)N[C@@H](CC)C(=O)N(C)CC(=O)N(C)[C@@H]([C@@H](C)O)C(=O)N[C@@H](C(C)C)C(=O)N(C)[C@@H](CC(C)C)C(=O)N[C@@H](CC(C)C)C(=O)N[C@H](C)C(=O)N(C)[C@@H](CC(C)C)C(=O)N(C)[C@@H](CC(C)C)C(=O)N(C)[C@@H](C(C)C)C(=O)N1C [Compound C51] (cyclo([MeBmt][Abu][Sar][NMeT]V[NMeL]L[dA][NMeL][NMeL][NMeV]))	3.38	< 2000	96.62
